The source of these data is US4705753A, “Biologically active acrylonitrile-based copolymeric membrane” (priority 1984, dated 1987).

In this test the target is glucose isomerase (GI) from Streptomyces albus, purified, covalently immobilized on acrylonitrile copolymer membrane (Streptomyces albus G, UniProt P24299). The note with it: substrate glucose; membrane-bound GI; 70° C., pH 6.8 maleate buffer, 7 mM MgSO4, 3 mM CoSO4.
glucose isomerase (GI) from Streptomyces albus, purified, covalently immobilized on acrylonitrile copolymer membrane, sequence (P24299 whole entry): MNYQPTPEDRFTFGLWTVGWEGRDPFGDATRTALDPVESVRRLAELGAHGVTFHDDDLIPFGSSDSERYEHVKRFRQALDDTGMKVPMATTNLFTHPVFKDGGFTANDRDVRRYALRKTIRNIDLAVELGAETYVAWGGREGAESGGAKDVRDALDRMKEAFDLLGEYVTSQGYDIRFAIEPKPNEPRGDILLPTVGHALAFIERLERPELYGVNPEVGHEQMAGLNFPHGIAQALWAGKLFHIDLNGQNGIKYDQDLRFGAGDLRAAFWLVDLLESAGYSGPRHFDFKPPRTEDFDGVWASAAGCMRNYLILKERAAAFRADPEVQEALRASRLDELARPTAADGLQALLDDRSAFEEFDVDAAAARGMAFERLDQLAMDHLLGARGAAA

On to `OC[C@H]1OC(O)[C@H](O)[C@@H](O)[C@@H]1O` (stereo partly shown) [glucose], for which the “Vmax for the immobilized GI” value is roughly 15 µmol/min/mg.
